Data as given in PubChem BioAssay (NCI).
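Cells were grown in 96-well plates and exposed to each compound for 48 hours at five concentrations; endpoints were interpolated linearly between bracketing concentrations, or set to the highest concentration if not reached. GI50: concentration for 50% inhibition of growth. TGI marks complete inhibition of growth.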

Key:
Experiment in all cases: DTP human tumour cell line panel, 48 h
[1] = tested on: RPMI-8226 leukemia
[2] = tested on: K-562 leukemia
[3] = tested on: HCC-2998 colon
[4] = tested on: UO-31 renal
[5] = tested on: SF-295 CNS
[6] = tested on: OVCAR-8 ovarian
[7] = tested on: UACC-257 melanoma
[8] = tested on: SR leukemia
[9] = tested on: SNB-19 CNS
[10] = tested on: 786-0 renal
[11] = tested on: NCI-H226 lung
[12] = tested on: CCRF-CEM leukemia
[13] = tested on: SF-268 CNS
[14] = tested on: NCI/ADR-RES ovarian
[15] = tested on: MCF7 breast
[16] = tested on: EKVX NSCLC
[17] = tested on: M14 melanoma
[18] = tested on: T-47D breast
[19] = tested on: SW-620 colon
[20] = tested on: HCT-116 colon
[21] = tested on: A498 renal
[22] = tested on: LOX IMVI melanoma
[23] = tested on: NCI-H23 lung
[24] = tested on: TK-10 renal
[25] = tested on: IGROV1 ovarian
[26] = tested on: UACC-62 melanoma
[27] = tested on: U251 CNS
[28] = tested on: SK-MEL-5 melanoma
[29] = tested on: PC-3 prostate
[30] = tested on: MALME-3M melanoma
[31] = tested on: NCI-H460 lung
[32] = tested on: COLO 205 colon
[33] = tested on: MOLT-4 leukemia
[34] = tested on: HL-60(TB) leukemia
[35] = tested on: SNB-75 CNS
[36] = tested on: BT-549 breast
[37] = tested on: KM12 colon
[38] = tested on: HT29 colon
[39] = tested on: HOP-92 NSCLC
[40] = tested on: HOP-62 NSCLC
[41] = tested on: DU-145 prostate
[42] = tested on: HS 578T breast
[43] = tested on: MDA-MB-231 breast
[44] = tested on: OVCAR-3 ovarian
[45] = tested on: SK-MEL-28 melanoma
[46] = tested on: NCI-H522 lung
[47] = tested on: SN12C renal
[48] = tested on: CAKI-1 renal
[49] = tested on: HCT-15 colon
[50] = tested on: A549 NSCLC
[51] = tested on: SF-539 CNS
[52] = tested on: OVCAR-5 ovarian
[53] = tested on: OVCAR-4 ovarian
[54] = tested on: SK-MEL-2 melanoma
[55] = tested on: ACHN renal
[56] = tested on: SK-OV-3 ovarian
[57] = tested on: MDA-MB-435

Q: With `CC(=Nc1ccccc1)C1=C(O)C(Cc2ccccc2)NC1=O` (configuration not stated) as the molecule, how does the GI50 [1] read?
A: 51.5 nM

Q: And the TGI [1]?
A: > 100000 nM

Q: And the GI50 [2]?
A: 20.3 nM

Q: What about the TGI [2] of the same molecule?
A: > 100000 nM

Q: And the GI50 [3]?
A: 77.9 nM

Q: What about the TGI [3] of the same molecule?
A: 640 nM

Q: And the GI50 [4]?
A: 83.2 nM

Q: What about the TGI [4] of the same molecule?
A: > 100000 nM

Q: And the GI50 [5]?
A: 23.8 nM

Q: And the TGI [5]?
A: 72.1 nM

Q: What about the GI50 [6] of the same molecule?
A: 94.5 nM

Q: And the TGI [6]?
A: > 100000 nM

Q: And the GI50 [7]?
A: > 100000 nM

Q: And the TGI [7]?
A: > 100000 nM

Q: What about the GI50 [8] of the same molecule?
A: 23.1 nM

Q: And the TGI [8]?
A: > 30900 nM

Q: What about the GI50 [9] of the same molecule?
A: 76.5 nM

Q: What about the TGI [9] of the same molecule?
A: > 100000 nM

Q: What about the GI50 [10] of the same molecule?
A: 58.6 nM

Q: And the GI50 [11]?
A: 244 nM

Q: What about the TGI [11] of the same molecule?
A: > 100000 nM

Q: What about the GI50 [12] of the same molecule?
A: 43.1 nM

Q: And the TGI [12]?
A: > 100000 nM

Q: What about the GI50 [13] of the same molecule?
A: 58.6 nM

Q: And the TGI [13]?
A: > 76200 nM

Q: And the GI50 [14]?
A: 30 nM

Q: And the TGI [14]?
A: 117 nM

Q: And the GI50 [15]?
A: 36.7 nM

Q: What about the TGI [15] of the same molecule?
A: > 100000 nM

Q: What about the GI50 [16] of the same molecule?
A: 79.8 nM

Q: And the TGI [16]?
A: > 100000 nM

Q: And the GI50 [17]?
A: 24.8 nM

Q: What about the TGI [17] of the same molecule?
A: 102 nM

Q: And the GI50 [18]?
A: > 100000 nM

Q: And the TGI [18]?
A: > 100000 nM

Q: And the GI50 [19]?
A: 32.8 nM

Q: And the TGI [19]?
A: > 100000 nM

Q: And the GI50 [20]?
A: 36.3 nM

Q: And the TGI [20]?
A: 510 nM

Q: And the GI50 [21]?
A: 30.7 nM

Q: What about the TGI [21] of the same molecule?
A: 259 nM

Q: What about the GI50 [22] of the same molecule?
A: 57.4 nM

Q: And the TGI [22]?
A: > 34000 nM

Q: And the GI50 [23]?
A: 66.9 nM

Q: What about the TGI [23] of the same molecule?
A: > 100000 nM

Q: And the GI50 [24]?
A: 42 nM

Q: And the TGI [24]?
A: > 100000 nM

Q: And the GI50 [25]?
A: 65.1 nM

Q: What about the TGI [25] of the same molecule?
A: > 100000 nM

Q: What about the GI50 [26] of the same molecule?
A: 40.4 nM

Q: What about the TGI [26] of the same molecule?
A: > 100000 nM

Q: What about the GI50 [27] of the same molecule?
A: 37.3 nM

Q: And the TGI [27]?
A: > 37200 nM

Q: What about the GI50 [28] of the same molecule?
A: 44.6 nM

Q: And the TGI [28]?
A: 2630 nM

Q: And the GI50 [29]?
A: 36 nM

Q: What about the TGI [29] of the same molecule?
A: > 100000 nM

Q: What about the GI50 [30] of the same molecule?
A: 18 nM

Q: And the TGI [30]?
A: > 100000 nM

Q: And the GI50 [31]?
A: 37.5 nM

Q: What about the TGI [31] of the same molecule?
A: 1260 nM

Q: What about the GI50 [32] of the same molecule?
A: 27.9 nM

Q: And the TGI [32]?
A: 82.4 nM

Q: And the GI50 [33]?
A: 75.3 nM

Q: What about the TGI [33] of the same molecule?
A: > 100000 nM

Q: And the GI50 [34]?
A: 26.5 nM

Q: And the TGI [34]?
A: 67.1 nM

Q: And the GI50 [35]?
A: 24.6 nM

Q: And the TGI [35]?
A: 78.8 nM

Q: What about the GI50 [36] of the same molecule?
A: 57.8 nM

Q: What about the TGI [36] of the same molecule?
A: 501 nM

Q: And the GI50 [37]?
A: 27.8 nM

Q: What about the TGI [37] of the same molecule?
A: 266 nM

Q: And the GI50 [38]?
A: 33.1 nM

Q: What about the TGI [38] of the same molecule?
A: 151 nM

Q: And the GI50 [39]?
A: 51.5 nM

Q: And the TGI [39]?
A: > 100000 nM

Q: What about the GI50 [40] of the same molecule?
A: 43.5 nM

Q: What about the GI50 [41] of the same molecule?
A: 133 nM

Q: And the TGI [41]?
A: 1290 nM

Q: And the GI50 [42]?
A: 35.4 nM

Q: And the TGI [42]?
A: > 100000 nM

Q: And the GI50 [43]?
A: 224 nM

Q: What about the TGI [43] of the same molecule?
A: > 100000 nM

Q: What about the GI50 [44] of the same molecule?
A: 23.7 nM

Q: And the TGI [44]?
A: 53.5 nM

Q: And the GI50 [45]?
A: 71.2 nM

Q: What about the TGI [45] of the same molecule?
A: > 100000 nM

Q: What about the GI50 [46] of the same molecule?
A: 21.6 nM

Q: And the TGI [46]?
A: 64.5 nM

Q: And the GI50 [47]?
A: 227 nM

Q: What about the TGI [47] of the same molecule?
A: > 100000 nM

Q: And the GI50 [48]?
A: 29.9 nM

Q: What about the TGI [48] of the same molecule?
A: > 76400 nM

Q: What about the GI50 [49] of the same molecule?
A: 42.5 nM

Q: What about the TGI [49] of the same molecule?
A: > 48100 nM

Q: What about the GI50 [50] of the same molecule?
A: 52 nM

Q: What about the TGI [50] of the same molecule?
A: > 100000 nM

Q: What about the GI50 [51] of the same molecule?
A: 43.9 nM

Q: What about the TGI [51] of the same molecule?
A: 501 nM

Q: And the GI50 [52]?
A: 93.8 nM

Q: What about the TGI [52] of the same molecule?
A: > 100000 nM

Q: What about the GI50 [53] of the same molecule?
A: 115 nM

Q: What about the TGI [53] of the same molecule?
A: > 100000 nM

Q: What about the GI50 [54] of the same molecule?
A: 44.7 nM

Q: And the TGI [54]?
A: > 31500 nM

Q: And the GI50 [55]?
A: 62.5 nM

Q: And the TGI [55]?
A: > 100000 nM

Q: What about the GI50 [56] of the same molecule?
A: 53.7 nM

Q: And the TGI [56]?
A: > 61800 nM

Q: What about the GI50 [57] of the same molecule?
A: 19.6 nM

Q: And the TGI [57]?
A: 52.8 nM
